# PubChem BioAssay AID248 (DTP/NCI, 2004)
# Where “and” joins values, the source holds several entries; their conditions need not be identical. Equal values may be shown once. Toxic doses and inconclusive results are not listed.
# Tested on: L1210 leukemia ip in BDF1 mice, survival T/C
# Assay: NCI In Vivo Anticancer Drug Screen. Data for tumor model L1210 Leukemia (intraperitoneal) in B6D2F1 (BDF1) mice
# Settings: endpoint: mean survival time, higher = longer survival
# Method in brief: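 Antitumor effect is assessed in tumor-bearing animals. Survival in the compound arm is compared with a vehicle-dosed control arm and expressed as their quotient.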
# [1] = dose: 100.0 mg/kg/injection, schedule: Q01DX001 (ip), vehicle: carboxymethylcellulose (CMC)
# [2] = dose: 200.0 mg/kg/injection, schedule: Q01DX001 (ip), vehicle: carboxymethylcellulose (CMC)
# [3] = dose: 400.0 mg/kg/injection, schedule: Q01DX001 (ip), vehicle: carboxymethylcellulose (CMC)
compound,measurement,setting,value
CN(C)CC(=O)c1ccc(O)c(O)c1,T/C,"dose: 29.5 mg/kg/injection, schedule: Q#A X Z (ip), vehicle: saline",123 % of control
same,T/C,"dose: 44.5 mg/kg/injection, schedule: Q#A X Z (ip), vehicle: saline",124 % of control
same,T/C,"dose: 50.0 mg/kg/injection, schedule: Q01DX Z (ip), vehicle: saline",109 % of control
same,T/C,"dose: 75.0 mg/kg/injection, schedule: Q01DX010 (ip), vehicle: saline",112 % of control and 114 % of control
same,T/C,"dose: 75.0 mg/kg/injection, schedule: Q01DX Z (ip), vehicle: carboxymethylcellulose (CMC)",110 % of control
same,T/C,"dose: 75.0 mg/kg/injection, schedule: Q01DX Z (ip), vehicle: clinical formulation",110 % of control and 113 % of control
same,T/C,"dose: 75.0 mg/kg/injection, schedule: Q01DX Z (ip), vehicle: water",112 % of control
same,T/C,"dose: 100.0 mg/kg/injection, schedule: Q01DX Z (ip), vehicle: saline",116 % of control
same,T/C,"dose: 133.0 mg/kg/injection, schedule: Q01DX Z (ip), vehicle: saline",124 % of control
same,T/C,"dose: 150.0 mg/kg/injection, schedule: Q01DX Z (ip), vehicle: carboxymethylcellulose (CMC)",112 % of control
same,T/C,"dose: 150.0 mg/kg/injection, schedule: Q01DX Z (ip), vehicle: clinical formulation",116 % of control
same,T/C,"dose: 150.0 mg/kg/injection, schedule: Q01DX Z (ip), vehicle: water",124 % of control
same,T/C,"dose: 150.0 mg/kg/injection, schedule: Q#A X Z (ip), vehicle: saline",118 % of control
same,T/C,"dose: 200.0 mg/kg/injection, schedule: Q01DX007 (iv), vehicle: saline",104 % of control
same,T/C,"dose: 200.0 mg/kg/injection, schedule: Q01DX Z (sc), vehicle: saline",108 % of control
same,T/C,"dose: 200.0 mg/kg/injection, schedule: Q## X Z (ip), vehicle: saline",100 % of control
same,T/C,"dose: 266.0 mg/kg/injection, schedule: Q03DX Z (ip), vehicle: saline",123 % of control
same,T/C,"dose: 300.0 mg/kg/injection, schedule: Q01DX007 (iv), vehicle: saline",95 % of control
same,T/C,"dose: 300.0 mg/kg/injection, schedule: Q01DX Z (ip), vehicle: clinical formulation",118 % of control
same,T/C,"dose: 300.0 mg/kg/injection, schedule: Q01DX Z (ip), vehicle: water",116 % of control
same,T/C,"dose: 300.0 mg/kg/injection, schedule: Q01DX Z (sc), vehicle: saline",108 % of control
same,T/C,"dose: 300.0 mg/kg/injection, schedule: Q## X Z (ip), vehicle: saline",100 % of control
same,T/C,"dose: 400.0 mg/kg/injection, schedule: Q03DX Z (ip), vehicle: saline",117 % of control
same,T/C,"dose: 450.0 mg/kg/injection, schedule: Q01DX Z (ip), vehicle: saline",153 % of control
same,T/C,"dose: 450.0 mg/kg/injection, schedule: Q01DX Z (sc), vehicle: saline",103 % of control
same,T/C,"dose: 450.0 mg/kg/injection, schedule: Q## X Z (ip), vehicle: saline",100 % of control
same,T/C,"dose: 532.0 mg/kg/injection, schedule: Q01DX Z (oral), vehicle: saline",94 % of control
same,T/C,"dose: 600.0 mg/kg/injection, schedule: Q03DX Z (ip), vehicle: saline",102 % of control and 112 % of control (2×)
same,T/C,"dose: 622.0 mg/kg/injection, schedule: Q07DX Z (ip), vehicle: saline",115 % of control
same,T/C,"dose: 675.0 mg/kg/injection, schedule: Q01DX Z (sc), vehicle: saline",116 % of control
same,T/C,"dose: 675.0 mg/kg/injection, schedule: Q## X Z (ip), vehicle: saline",102 % of control
same,T/C,"dose: 800.0 mg/kg/injection, schedule: Q01DX Z (ip), vehicle: carboxymethylcellulose (CMC)",102 % of control
same,T/C,"dose: 800.0 mg/kg/injection, schedule: Q01DX Z (oral), vehicle: saline",101 % of control and 88 % of control
same,T/C,"dose: 933.0 mg/kg/injection, schedule: Q07DX Z (ip), vehicle: saline",104 % of control
same,T/C,"dose: 1200.0 mg/kg/injection, schedule: Q01DX Z (oral), vehicle: saline",102 % of control and 106 % of control
same,T/C,"dose: 1400.0 mg/kg/injection, schedule: Q07DX Z (ip), vehicle: saline",113 % of control
same,T/C,"dose: 1800.0 mg/kg/injection, schedule: Q01DX Z (oral), vehicle: saline",100 % of control
Clc1cccc(Cl)c1/C=N/N1CCN(/N=C/c2c(Cl)cccc2Cl)CC1,T/C,[1],91 % of control
same,T/C,[2],89 % of control
same,T/C,[3],91 % of control
CC(=N/N=C(N)N)/C(C)=N/N=C(N)N,T/C,"dose: 15.0 mg/kg/injection, schedule: Q01DX Z (ip), vehicle: saline",98 % of control
same,T/C,"dose: 30.0 mg/kg/injection, schedule: Q01DX Z (ip), vehicle: saline",97 % of control
same,T/C,"dose: 60.0 mg/kg/injection, schedule: Q01DX005 (oral), vehicle: saline",96 % of control
same,T/C,"dose: 60.0 mg/kg/injection, schedule: Q01DX Z (ip), vehicle: saline",108 % of control
same,T/C,"dose: 120.0 mg/kg/injection, schedule: Q01DX Z (ip), vehicle: saline",98 % of control
CC(C)(C#N)NC(N)=O,T/C,"dose: 100.0 mg/kg/injection, schedule: Q01DX001 (ip), vehicle: saline",101 % of control
same,T/C,"dose: 100.0 mg/kg/injection, schedule: Q01DX009 (ip), vehicle: saline",103 % of control
same,T/C,"dose: 100.0 mg/kg/injection, schedule: Q04DX003 (ip), vehicle: saline",107 % of control
same,T/C,"dose: 200.0 mg/kg/injection, schedule: Q01DX001 (ip), vehicle: saline",102 % of control
same,T/C,"dose: 200.0 mg/kg/injection, schedule: Q01DX009 (ip), vehicle: saline",102 % of control
same,T/C,"dose: 200.0 mg/kg/injection, schedule: Q04DX003 (ip), vehicle: saline",104 % of control
same,T/C,"dose: 400.0 mg/kg/injection, schedule: Q01DX001 (ip), vehicle: saline",98 % of control
same,T/C,"dose: 400.0 mg/kg/injection, schedule: Q01DX009 (ip), vehicle: saline",97 % of control
same,T/C,"dose: 400.0 mg/kg/injection, schedule: Q04DX003 (ip), vehicle: saline",102 % of control
CSc1ccc(NC(=O)C(F)(F)F)cc1,T/C,"dose: 50.0 mg/kg/injection, schedule: Q01DX001 (ip), vehicle: carboxymethylcellulose (CMC)",97 % of control
same,T/C,[1],92 % of control
same,T/C,[2],97 % of control
same,T/C,[3],95 % of control
O=C(/C=C/c1cccc(Cl)c1)c1ccc(Cl)cc1,T/C,"dose: 25.0 mg/kg/injection, schedule: Q01DX009 (ip), vehicle: saline with Tween-80",95 % of control and 96 % of control
same,T/C,"dose: 25.0 mg/kg/injection, schedule: Q04DX003 (ip), vehicle: carboxymethylcellulose (CMC)",95 % of control and 103 % of control
same,T/C,"dose: 50.0 mg/kg/injection, schedule: Q01DX009 (ip), vehicle: saline with Tween-80",93 % of control and 95 % of control
same,T/C,"dose: 50.0 mg/kg/injection, schedule: Q04DX003 (ip), vehicle: carboxymethylcellulose (CMC)",105 % of control and 89 % of control
same,T/C,[1],94 % of control
same,T/C,"dose: 100.0 mg/kg/injection, schedule: Q01DX009 (ip), vehicle: carboxymethylcellulose (CMC)",86 % of control
same,T/C,"dose: 100.0 mg/kg/injection, schedule: Q01DX009 (ip), vehicle: saline with Tween-80",92 % of control and 91 % of control
same,T/C,"dose: 100.0 mg/kg/injection, schedule: Q04DX002 (ip), vehicle: carboxymethylcellulose (CMC)",92 % of control and 100 % of control
same,T/C,[2],92 % of control
same,T/C,"dose: 200.0 mg/kg/injection, schedule: Q01DX009 (ip), vehicle: carboxymethylcellulose (CMC)",90 % of control
same,T/C,"dose: 200.0 mg/kg/injection, schedule: Q04DX002 (ip), vehicle: carboxymethylcellulose (CMC)",100 % of control and 107 % of control
same,T/C,"dose: 200.0 mg/kg/injection, schedule: Q04DX003 (ip), vehicle: carboxymethylcellulose (CMC)",96 % of control
same,T/C,[3],92 % of control
same,T/C,"dose: 400.0 mg/kg/injection, schedule: Q04DX002 (ip), vehicle: carboxymethylcellulose (CMC)",100 % of control and 102 % of control
same,T/C,"dose: 400.0 mg/kg/injection, schedule: Q04DX003 (ip), vehicle: carboxymethylcellulose (CMC)",91 % of control
O=C(O)Cn1cnc2cncnc21,T/C,"dose: 100.0 mg/kg/injection, schedule: Q04DX003 (ip), vehicle: saline with Tween-80",118 % of control
same,T/C,"dose: 200.0 mg/kg/injection, schedule: Q04DX003 (ip), vehicle: saline with Tween-80",104 % of control
same,T/C,"dose: 400.0 mg/kg/injection, schedule: Q04DX003 (ip), vehicle: saline with Tween-80",102 % of control
Cc1ccc(S(=O)(=O)/C=C(\C=C/c2ccccc2)c2ccccc2)cc1,T/C,"dose: 100.0 mg/kg/injection, schedule: Q04DX003 (ip), vehicle: acetone",95 % of control
same,T/C,"dose: 200.0 mg/kg/injection, schedule: Q04DX003 (ip), vehicle: acetone",95 % of control
O=C(C(=S)N1CCOCC1)c1ccccc1,T/C,"dose: 100.0 mg/kg/injection, schedule: Q04DX003 (ip), vehicle: Klucel (hydroxypropylcellulose) (HPC)",101 % of control
same,T/C,"dose: 200.0 mg/kg/injection, schedule: Q04DX003 (ip), vehicle: Klucel (hydroxypropylcellulose) (HPC)",104 % of control
same,T/C,"dose: 400.0 mg/kg/injection, schedule: Q04DX003 (ip), vehicle: Klucel (hydroxypropylcellulose) (HPC)",101 % of control
